Test results published in US20100029784A1, “NAPHTHOQUINONE COMPOSITIONS WITH ANTI-AGING, ANTI-INFLAMMATORY AND SKIN EVEN-TONING PROPERTIES” (priority 2008, published 2010).

System: MelanoDerm in vitro skin model (MEL-300B melanoderms)
Test: In vitro skin model test (MelanoDerm, MatTek), skin-lightening effect by digital image quantification
Type: cell-based
Conditions: for lightening / pixel density (untreated set at 1.00): 14 days, MEL-300B
Description: The skin-lightening effect was validated on the in vitro skin model, the MelanoDerm™ carried out by MatTek using MEL-300B melanoderms. This model is very similar in structure and function to the natural skin and has the cell types relevant in the epidermis including the melanocytes, which are responsible for the synthesis of the main pigment melanin. Further information can be found, for example, in http://www.mattek.com/pages/in_vitro_basics. The study was carried out over a period of 14 days at two concentrations of 2,3-dimethylnaphthalene-1,4-dione, 10 μM and 60 μM. 1% Kojic acid was the positive standard and untreated as negative control.
Digital image quantification was achieved by subtracting a standard background value from the pixel content of regions of identical size. The pixel content of untreated cells was set at 1.00. Treatment with topical 1% kojic acid as a positive control gave pixel density of 0.96, or 4% lightening. Treatment with 2,3-dimethylnaphthalene-1,4-dione gave pixel density of 0.66 or 34% lightening at a concentration of 10 μM and 0.38 or 62% lightening at a concentration of 60 μM.

[1] = topical 1% kojic acid, positive control

Structure (SMILES) | lightening [1] | pixel density (untreated set at 1.00) [1] | effectiveness relative to the kojic acid positive standard (concentration of 10 μM vs 1% kojic acid) | lightening (concentration of 10 μM) | pixel density (untreated set at 1.00) (concentration of 10 μM) | effectiveness relative to the kojic acid positive standard (concentration of 60 μM vs 1% kojic acid) | lightening (concentration of 60 μM) | pixel density (untreated set at 1.00) (concentration of 60 μM)
O=c1cc(CO)occ1O [kojic acid, Kojic acid, reference compound] | 4% | 0.96 |  |  |  |  |  | 
CC1=C(C)C(=O)c2ccccc2C1=O [2,3-dimethylnaphthalene-1,4-dione] |  |  | about ten times as effective | 34% | 0.66 | about fifteen times as effective | 62% | 0.38
